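These data come from cells grown in 96-well plates and exposed to compound for 48 hours at five concentrations. TGI denotes the concentration required for complete inhibition of growth.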
Key:
Test in all cases: NCI-60 cell line screen, 48 h
[1] = test system: NCI-H226 lung
[2] = test system: SF-295 CNS
[3] = test system: HS 578T breast
[4] = test system: DU-145 prostate
[5] = test system: UO-31 renal
[6] = test system: SF-268 CNS
[7] = test system: ACHN renal
[8] = test system: KM12 colon
[9] = test system: SK-MEL-5 melanoma
[10] = test system: U251 CNS

Work on `CC(=O)Oc1ccc2c(-c3ccccc3)c(Oc3ccc(Cl)cc3)c(=O)oc2c1` yielded a TGI [1] of 32.5 µM, a TGI [2] of 32.4 µM and a TGI [3] of 43.8 µM. The TGI [4] was 27.4 µM, the TGI [5] was 28.4 µM and the TGI [6] was 22.6 µM. The TGI [7] was 30.5 µM, the TGI [8] was 27.5 µM and the TGI [9] was 32.6 µM. For the same compound, the TGI [10] was 16.3 µM.

`CC(=O)/C(=N\Nc1ccc(Cl)cc1)C(C)=Nc1ccc(C)cc1` was tested, and the TGI [1] was 83.7 µM, the TGI [2] was > 100 µM and the TGI [3] was > 100 µM. For the same compound, the TGI [4] was > 100 µM, the TGI [5] was > 100 µM and the TGI [6] was > 100 µM. For the same compound, the TGI [7] was 61.3 µM, the TGI [8] was > 100 µM and the TGI [9] was 38.8 µM. For the same compound, the TGI [10] was > 100 µM.

With `COc1ccc2c(c1OC)C(=O)N1C2=Cc2c(cc3c(c2OC)OCO3)CC1N(C)C` (stereo not given) the TGI [1] was > 100 µM, the TGI [2] was > 100 µM and the TGI [3] was > 100 µM. The TGI [4] was > 100 µM, the TGI [5] was > 100 µM and the TGI [6] was > 100 µM. For the same compound, the TGI [7] was > 100 µM, the TGI [8] was > 100 µM and the TGI [9] was > 100 µM. The TGI [10] was > 100 µM.

`CO[P@@]1(=O)O[C@@H](c2ccccc2)[C@H](O)[C@]1(O)c1ccccc1` was tested, and the TGI [1] was > 100 µM, the TGI [2] was > 100 µM and the TGI [3] was > 100 µM. For the same compound, the TGI [4] was > 100 µM, the TGI [5] was > 100 µM and the TGI [6] was > 100 µM. The TGI [7] was > 100 µM, the TGI [8] was > 100 µM and the TGI [9] was > 100 µM. For the same compound, the TGI [10] was > 100 µM.

With `Oc1ccccc1/C=N/N1C(=S)N(C23CC4CC(CC(C4)C2)C3)C(=Nc2ccccc2)C1=Nc1ccccc1` the TGI [1] was > 100 µM, the TGI [2] was > 100 µM and the TGI [3] was > 100 µM. The TGI [4] was > 100 µM, the TGI [5] was > 100 µM and the TGI [6] was > 100 µM. For the same compound, the TGI [7] was > 100 µM, the TGI [8] was > 100 µM and the TGI [9] was > 100 µM. The TGI [10] was > 100 µM.

`CCCCNC(=O)Cn1c2ccc(Br)cc2c2nc3ccccc3nc21` was tested, and the TGI [1] was > 100 µM, the TGI [2] was > 100 µM and the TGI [3] was > 100 µM. For the same compound, the TGI [4] was > 100 µM, the TGI [5] was > 100 µM and the TGI [6] was > 100 µM. The TGI [7] was > 100 µM, the TGI [8] was > 100 µM and the TGI [9] was > 100 µM. The TGI [10] was > 100 µM.

In the case of `C/C(=C\CSCC(N)C(=O)O)CC/C=C(\C)CNc1ccccc1` (stereo not given), the TGI [1] is reported as > 100 µM, the TGI [2] is reported as > 100 µM and the TGI [3] is reported as > 100 µM. The TGI [4] was > 100 µM, the TGI [5] was > 100 µM and the TGI [6] was > 100 µM. The TGI [7] was > 100 µM, the TGI [8] was > 100 µM and the TGI [9] was > 100 µM. The TGI [10] was > 100 µM.

For `CCOC(=O)/C=C/CCC(C)(C)COC(C)=O`, the TGI [1] was > 10 µM, the TGI [2] was > 10 µM and the TGI [3] was > 10 µM. For the same compound, the TGI [4] was > 10 µM, the TGI [5] was > 10 µM and the TGI [6] was > 10 µM. For the same compound, the TGI [7] was > 10 µM, the TGI [8] was > 10 µM and the TGI [9] was > 10 µM. The TGI [10] was > 10 µM.

For `CC1=C(C)SC(=C2Sc3c(n(C)c(=O)n(C)c3=O)S2)S1`, the TGI [1] was 48.5 µM, the TGI [2] was > 100 µM and the TGI [3] was > 100 µM. The TGI [4] was > 100 µM, the TGI [5] was > 100 µM and the TGI [6] was > 100 µM. The TGI [7] was > 100 µM, the TGI [8] was > 100 µM and the TGI [9] was > 100 µM. For the same compound, the TGI [10] was 18.9 µM.

For `CC1(C)OCC(C2OC(C)(C)OC2[C@H]2O[C@@]3(O)[C@H]4[C@H](C=CC[C@@H]42)[C@@H](OCc2ccccc2)[C@H](OCc2ccccc2)[C@H]3OCc2ccccc2)O1` (stereo not given in full), the TGI [1] was > 100 µM, the TGI [2] was > 100 µM and the TGI [3] was > 100 µM. The TGI [4] was > 100 µM, the TGI [5] was 72.3 µM and the TGI [6] was > 100 µM. For the same compound, the TGI [7] was > 100 µM, the TGI [8] was > 100 µM and the TGI [9] was > 100 µM. For the same compound, the TGI [10] was > 100 µM.

With `COc1ccc(C2c3cc4c(cc3OC(Nc3ccccc3)C2C)OCO4)cc1` (stereo not given) the TGI [1] was > 100 µM, the TGI [2] was > 100 µM and the TGI [3] was > 100 µM. For the same compound, the TGI [4] was > 100 µM, the TGI [5] was > 100 µM and the TGI [6] was > 100 µM. For the same compound, the TGI [7] was > 100 µM, the TGI [8] was > 100 µM and the TGI [9] was > 100 µM. The TGI [10] was > 100 µM.

In the case of `NCCCCNCCCN1CCOC1=O`, the TGI [1] is reported as > 100 µM, the TGI [2] is reported as > 100 µM and the TGI [3] is reported as > 100 µM. The TGI [4] was > 100 µM, the TGI [5] was > 100 µM and the TGI [6] was > 100 µM. For the same compound, the TGI [7] was > 100 µM, the TGI [8] was > 100 µM and the TGI [9] was > 100 µM. For the same compound, the TGI [10] was > 100 µM.

In the case of `CN(C)CCNCCCNc1c2ccccc2nc2cccc([N+](=O)[O-])c12`, the TGI [1] is reported as 0.102 µM, the TGI [2] is reported as 0.0741 µM and the TGI [3] is reported as 0.384 µM. It also gave a TGI [4] of 0.0525 µM, a TGI [5] of 0.26 µM and a TGI [6] of 0.105 µM. For the same compound, the TGI [7] was 0.0312 µM, the TGI [8] was 0.111 µM and the TGI [9] was 0.0507 µM. For the same compound, the TGI [10] was 0.0801 µM.

With `Cc1cc(-c2cc(C(C)(C)C)c(O)c(C(C)(C)C)c2)c(C)cc1-c1cc(C(C)(C)C)c(O)c(C(C)(C)C)c1` the TGI [1] was > 100 µM, the TGI [2] was > 100 µM and the TGI [3] was > 100 µM. The TGI [4] was > 100 µM, the TGI [5] was > 100 µM and the TGI [6] was > 100 µM. For the same compound, the TGI [7] was > 100 µM, the TGI [8] was > 100 µM and the TGI [9] was > 100 µM. For the same compound, the TGI [10] was > 100 µM.

In the case of `Nc1c(N2CCOCC2)c(=O)nc2[nH]/c(=C\c3ccccc3O)c(=O)n12`, the TGI [1] is reported as > 100 µM, the TGI [2] is reported as > 100 µM and the TGI [3] is reported as > 100 µM. The TGI [4] was > 100 µM, the TGI [5] was > 100 µM and the TGI [6] was > 100 µM. The TGI [7] was > 100 µM, the TGI [8] was > 100 µM and the TGI [9] was > 100 µM. The TGI [10] was > 100 µM.

With `COc1cc2c(cc1OCc1ccccc1)NC(=O)[C@@H]1CCCN1C2=O` the TGI [1] was > 100 µM, the TGI [2] was > 100 µM and the TGI [3] was > 100 µM. The TGI [4] was > 100 µM, the TGI [5] was > 100 µM and the TGI [6] was > 100 µM. For the same compound, the TGI [7] was > 100 µM, the TGI [8] was > 100 µM and the TGI [9] was > 100 µM. The TGI [10] was > 100 µM.

With `CC(C)(C)/C(O)=C\c1nc2cc(F)c(F)cc2[nH]c1=O` the TGI [1] was > 100 µM, the TGI [2] was > 100 µM and the TGI [3] was > 100 µM. The TGI [4] was 57 µM, the TGI [5] was > 100 µM and the TGI [6] was > 100 µM. For the same compound, the TGI [7] was > 100 µM, the TGI [8] was > 100 µM and the TGI [9] was > 100 µM. For the same compound, the TGI [10] was > 100 µM.

`CCC1([N+](=O)[O-])CN(N=O)C1` was tested, and the TGI [1] was > 100 µM, the TGI [2] was > 100 µM and the TGI [3] was > 100 µM. The TGI [4] was > 100 µM, the TGI [5] was > 100 µM and the TGI [6] was > 100 µM. The TGI [7] was > 100 µM, the TGI [8] was > 100 µM and the TGI [9] was > 100 µM. For the same compound, the TGI [10] was > 100 µM.

— PubChem BioAssay (NCI)
